The values that follow come from patent US12162872B2, “Cycloalkylurea derivative” (Sumitomo Pharma Co., Ltd., priority 2019, dated 2024).

This assay has as its target T1, Human orexin receptor type 2 (Homo sapiens, UniProt O43614).
T1 construct: expressed in transfected cells; host or cells: CHO cells (transient expression)
T1 sequence (O43614 1-444): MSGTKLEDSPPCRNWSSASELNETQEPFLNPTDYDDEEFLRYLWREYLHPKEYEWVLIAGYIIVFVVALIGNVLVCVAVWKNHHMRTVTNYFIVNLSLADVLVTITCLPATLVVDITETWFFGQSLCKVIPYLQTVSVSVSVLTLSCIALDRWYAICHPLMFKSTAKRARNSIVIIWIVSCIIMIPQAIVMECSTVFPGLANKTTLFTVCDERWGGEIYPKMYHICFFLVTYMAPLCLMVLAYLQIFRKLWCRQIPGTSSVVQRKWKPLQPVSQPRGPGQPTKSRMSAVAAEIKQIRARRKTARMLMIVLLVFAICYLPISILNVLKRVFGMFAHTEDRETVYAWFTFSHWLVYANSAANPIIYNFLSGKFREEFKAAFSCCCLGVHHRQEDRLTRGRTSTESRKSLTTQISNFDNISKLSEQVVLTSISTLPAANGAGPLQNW
As to the kind of experiment: Test 1: Evaluation of agonist activity for orexin receptor type 2 (aequorin luminescence, intracellular calcium mobilization in CHO cells). Type of assay: cell-based. The settings on record: relative percentage of luminescence for the luminescence (100%) of Orexin A (100 pM); CHO cells transiently expressing human orexin receptor type 2 and apoaequorin; Orexin A Lot. 641114. The method, then:
Test 1: Evaluation of Agonist Activity for Orexin Receptor Type 2
Human orexin receptor type 2 and apoaequorin were transiently expressed in CHO cells, and the agonist activity was evaluated based on intracellular calcium mobilization with ligand stimulation. The CHO cells transiently-expressed human orexin receptor type 2 and apoaequorin were seeded on a 384-well plate by 2,000 cells/well, and then incubated for 16-22 hours. After the plate was returned to room temperature, Coelenterazine hcp (final concentration: 1 μM) was added to the plate, and the plate was allowed to stand at room temperature for 2 hours. And then, Orexin A (PEPTIDE INSTITUTE, INC., Lot. 641114) or each test compound was added to the plate, and the luminescence of the cells was measured with FDSS7000 (Hamamatsu Photonics K.K.), wherein Orexin A and each test compound were dissolved in DMSO (final concentration: 0.1%), and diluted with a buffer (Hanks, 20 mM HEPES, 0.1% BSA). The agonist activity of each test compound for orexin receptor type 2 was calculated as relative percentage of luminescence for the luminescence (100%) of Orexin A (100 pM).
For orientation: Calcium flux is commonly read through the fluorescence of an indicator in the cells.
For `CC(C)N1CCN([C@H]2CCCC(F)(F)[C@@H]2NC(=O)N2CCC(c3ccccc3)CC2)CC1` (racemic) [Example 38, rac-N-{(1R,6S)-2,2-difluoro-6-[4-(propan-2-yl)piperazin-1-yl]cyclohexyl}-4-phenylpiperidine-1-carboxamide], the “agonist activity (%)” value is on record as 142%. On to `CC(C)N1CCN([C@H]2CCCC(F)(F)[C@@H]2NC(=O)N2CCC(C)(c3ccccc3)CC2)CC1` (racemic) [Example 39, rac-N-{(1R,6S)-2,2-difluoro-6-[4-(propan-2-yl)piperazin-1-yl]cyclohexyl}-4-methyl-4-phenylpiperidine-1-carboxamide], for which the “agonist activity (%)” value is 157%. As for `CC(C)N1CCN([C@H]2CCCC(F)(F)[C@@H]2NC(=O)N2CCC(O)(c3ccc(Cl)cc3)CC2)CC1` (racemic) [Example 41, rac-4-(4-chlorophenyl)-N-{(1R,6S)-2,2-difluoro-6-[4-(propan-2-yl)piperazin-1-yl]cyclohexyl}-4-hydroxypiperidine-1-carboxamide], the “agonist activity (%)” value turned out to be 23%.

For the molecule `CC(C)N1CCN([C@H]2CCCC(F)(F)[C@@H]2NC(=O)N2CCC(C)(Oc3ccccn3)CC2)CC1` (racemic) [Example 42, rac-N-{(1R,6S)-2,2-difluoro-6-[4-(propan-2-yl)piperazin-1-yl]cyclohexyl}-4-methyl-4-[(pyridin-2-yl)oxy]piperidine-1-carboxamide], the “agonist activity (%)” value was 141%. Regarding `COc1nc(C2(C)CCN(C(=O)N[C@@H]3[C@@H](N4CCN(C(C)C)CC4)CCCC3(F)F)CC2)ns1` (racemic) [Example 45, rac-N-{(1R,6S)-2,2-difluoro-6-[4-(propan-2-yl)piperazin-1-yl]cyclohexyl}-4-(5-methoxy-1,2,4-thiadiazol-3-yl)-4-methylpiperidine-1-carboxamide], the “agonist activity (%)” value is 150%. Turning to `CC(C)N1CCN([C@H]2CCCC(F)(F)[C@@H]2NC(=O)N2CCC(F)(c3ccccn3)CC2)CC1` (racemic) [Example 46, rac-N-{(1R,6S)-2,2-difluoro-6-[4-(propan-2-yl)piperazin-1-yl]cyclohexyl}-4-fluoro-4-(pyridin-2-yl)piperidine-1-carboxamide], the “agonist activity (%)” value turned out to be 136%. Consider `CC(C)N1CCN([C@H]2CCCC(F)(F)[C@@H]2NC(=O)N2CCC(C)(c3csc(C4CC4)n3)CC2)CC1` (racemic) [Example 47, rac-4-(2-cyclopropyl-1,3-thiazol-4-yl)-N-{(1R,6S)-2,2-difluoro-6-[4-(propan-2-yl)piperazin-1-yl]cyclohexyl}-4-methylpiperidine-1-carboxamide], for which the “agonist activity (%)” value is given as 163%. As to `CC(C)N1CCN([C@H]2CCCC(F)(F)[C@@H]2NC(=O)N2CCC(C)(c3ncc(C4CC4)s3)CC2)CC1` (racemic) [Example 48, rac-4-(5-cyclopropyl-1,3-thiazol-2-yl)-N-{(1R,6S)-2,2-difluoro-6-[4-(propan-2-yl)piperazin-1-yl]cyclohexyl}-4-methylpiperidine-1-carboxamide], the “agonist activity (%)” value stood at 156%. On to `Cc1ccc(C2CCN(C(=O)N[C@@H]3[C@@H](N4CCN(C(C)C)CC4)CCCC3(F)F)CC2)nc1` (racemic) [Example 50, rac-N-{(1R,6S)-2,2-difluoro-6-[4-(propan-2-yl)piperazin-1-yl]cyclohexyl}-4-(5-methylpyridin-2-yl)piperidine-1-carboxamide], for which the “agonist activity (%)” value came out at 154%. On to `Cc1cnc(C2CCN(C(=O)N[C@@H]3[C@@H](N4CCN(C(C)C)CC4)CCCC3(F)F)CC2)c(F)c1` (racemic) [Example 51, rac-N-{(1R,6S)-2,2-difluoro-6-[4-(propan-2-yl)piperazin-1-yl]cyclohexyl}-4-(3-fluoro-5-methylpyridin-2-yl)piperidine-1-carboxamide], for which the “agonist activity (%)” value stood at 149%.

As for `CC(C)N1CCN([C@H]2CCCC(F)(F)[C@@H]2NC(=O)N2CCC(c3ccc(F)cn3)CC2)CC1` (racemic) [Example 52, rac-N-{(1R,6S)-2,2-difluoro-6-[4-(propan-2-yl)piperazin-1-yl]cyclohexyl}-4-(5-fluoropyridin-2-yl)piperidine-1-carboxamide], the “agonist activity (%)” value is reported as 113%. As for `COc1ccc(C2CCN(C(=O)N[C@@H]3[C@@H](N4CCN(C(C)C)CC4)CCCC3(F)F)CC2)nc1` (racemic) [Example 53, rac-N-{(1R,6S)-2,2-difluoro-6-[4-(propan-2-yl)piperazin-1-yl]cyclohexyl}-4-(5-methoxypyridin-2-yl)piperidine-1-carboxamide], the “agonist activity (%)” value came to 143%. On to `Cc1cnc(C2CCN(C(=O)N[C@@H]3[C@@H](N4CCN(C(C)C)CC4)CCCC3(F)F)CC2)nc1` (racemic) [Example 54, rac-N-{(1R,6S)-2,2-difluoro-6-[4-(propan-2-yl)piperazin-1-yl]cyclohexyl}-4-(5-methylpyrimidin-2-yl)piperidine-1-carboxamide], for which the “agonist activity (%)” value is 146%. For the molecule `CC(C)N1CCN([C@H]2CCCC(F)(F)[C@@H]2NC(=O)N2CCC(c3ccc(C(F)(F)F)cn3)CC2)CC1` (racemic) [Example 55, rac-N-{(1R,6S)-2,2-difluoro-6-[4-(propan-2-yl)piperazin-1-yl]cyclohexyl}-4-[5-(trifluoromethyl)pyridin-2-yl]piperidine-1-carboxamide], the “agonist activity (%)” value is 95%. The value for `Cc1ccc(C2(C)CCN(C(=O)N[C@@H]3[C@@H](N4CCN(C(C)C)CC4)CCCC3(F)F)CC2)cc1` (racemic) [Example 58, rac-N-{(1R,6S)-2,2-difluoro-6-[4-(propan-2-yl)piperazin-1-yl]cyclohexyl}-4-methyl-4-(4-methylphenyl)piperidine-1-carboxamide] was 150%. Turning to `CC(C)N1CCN([C@H]2CCCC(F)(F)[C@@H]2NC(=O)N2CCC(C)(c3ccc(C(F)F)cc3)CC2)CC1` (racemic) [Example 59, rac-4-[4-(difluoromethyl)phenyl]-N-{(1R,6S)-2,2-difluoro-6-[4-(propan-2-yl)piperazin-1-yl]cyclohexyl}-4-methylpiperidine-1-carboxamide], the “agonist activity (%)” value is reported as 164%. Consider `Cc1ccc(C2CC=C(C(=O)N[C@@H]3[C@@H](N4CCN(C(C)C)CC4)CCCC3(F)F)CC2)cc1` (mixture of isomers) [Example 77, rac-N-{(1R,6S)-2,2-Difluoro-6-[4-(propan-2-yl)piperazin-1-yl]cyclohexyl}-4′-methyl-1,2,3,6-tetrahydro[1,1′-biphenyl]-4-carboxamide], for which the “agonist activity (%)” value is listed as 158%. As for `Cc1ccc(C2CC=C(C(=O)O[C@@H]3[C@@H](N4CCN(C(C)C)CC4)CCCC3(F)F)CC2)cc1` (mixture of isomers) [Example 78, rac-(1R,6S)-2,2-Difluoro-6-[4-(propan-2-yl)piperazin-1-yl]cyclohexyl 4′-methyl-1,2,3,6-tetrahydro[1,1′-biphenyl]-4-carboxylate], the “agonist activity (%)” value amounted to 36%. For the molecule `CC(C)N1CCN([C@H]2CCCC(F)(F)[C@@H]2NC(=S)N2CCC(C)(c3noc(C4CC4)n3)CC2)CC1` (racemic) [Example 79, rac-4-(5-cyclopropyl-1,2,4-oxadiazol-3-yl)-N-{(1R,6S)-2,2-difluoro-6-[4-(propan-2-yl)piperazin-1-yl]cyclohexyl}-4-methylpiperidine-1-carbothioamide], the “agonist activity (%)” value is on record as 191%. For `Cc1ccc(C2CCN(C(=O)NC3C(CN4CCN(C(C)C)CC4)[C@@H]4CC[C@H]3C4)CC2)cc1` (mixture of isomers) [Example 81, rac-4-(4-Methylphenyl)-N-[(1S,4R)-3-{[4-(propan-2-yl)piperazin-1-yl]methyl}bicyclo[2.2.1]heptan-2-yl]piperidine-1-carboxamide], the “agonist activity (%)” value turned out to be 57%.

Consider `CC(C)N1CCN([C@H]2CCCC(F)(F)[C@@H]2OC(=O)N2CCC(C)(c3noc(C4CC4)n3)CC2)CC1` [Example 14, (1R,6S)-2,2-difluoro-6-[4-(propan-2-yl)piperazin-1-yl]cyclohexyl 4-(5-cyclopropyl-1,2,4-oxadiazol-3-yl)-4-methylpiperidine-1-carboxylate], for which the “agonist activity (%)” value was 178%. As to `CC(C)N1CCN([C@@H]2CCCC(F)(F)[C@H]2NC(=O)N2CCC(C)(c3cc(C4CC4)on3)CC2)CC1` [Example 22, 4-(5-cyclopropyl-1,2-oxazol-3-yl)-N-{(1S,6R)-2,2-difluoro-6-[4-(propan-2-yl)piperazin-1-yl]cyclohexyl}-4-methylpiperidine-1-carboxamide], the “agonist activity (%)” value turned out to be 163%. With `CC(C)N1CCN([C@@H]2CCCC(F)(F)[C@H]2NC(=O)N2CCC(C)(c3noc(C4CC4)n3)CC2)CC1` [Example 23, 4-(5-cyclopropyl-1,2,4-oxadiazol-3-yl)-N-{(1S,6R)-2,2-difluoro-6-[4-(propan-2-yl)piperazin-1-yl]cyclohexyl}-4-methylpiperidine-1-carboxamide], the “agonist activity (%)” value came out at 104%.
